{
  "source": "patent US7807368B2",
  "about": "“Cyclin-dependent kinase inhibitors as targets for opiod growth factor treatment” (priority 2006, dated 2010)",
  "key": {"[1]": {"system": "SCC-1 cells", "assay": "Growth curves of SCC-1 cells (viable cell counts, hemacytometer)", "type": "cell-based, human", "conditions": "10^-6 M OGF", "procedure": "The SCC-1 (UM-SCC-1) cell line was obtained from the University of Michigan Cancer Research Laboratory, and CAL-27 and SCC-4 cells were obtained from the American Type Culture Collection (Manassas, Va.). SCC-1 and CAL-27 cells were cultured in DMEM media, whereas SCC-4 cells were grown in 1:1 Hams F-12 DMEM media. All media was supplemented with 10% fetal bovine serum (HyClone, Logan, Utah), 1.2% sodium bicarbonate, and 5000 units/ml penicillin, 5 μg/ml streptomycin and 10 μg/ml neomycin. OGF was purchased from Sigma-Aldrich (St. Louis, Mo.), dissolved in sterile water, and used at a final concentration of 10^−6 M.\nCell growth and flow cytometry. For growth curves, cells were seeded in 6-well plates at an initial density of ˜2×10^5 cells/well. Fresh media and OGF were added 24 h after initial seeding, and media and OGF were replaced daily. At appropriate times, the cells were washed with PBS, trypsinized, and viable cell numbers were counted by trypan blue exclusion using a hemacytometer."}, "[2]": {"system": "Rb protein", "assay": "Western blot of Rb, phospho-Rb, p105 and p107 in synchronized SCC-1 cells", "type": "cell-based, human", "procedure": "Synchronized cells (˜2×10^6) from each treatment were solubilized in 200 μl RIPA buffer (1×PBS, 10 μM IGEPAL, 1 mg/ml SDS, 5 mg/ml deoxycholic acid), containing protease and phosphatase inhibitors (2 μg/ml aprotinin, 3 mg/ml phenylmethyl sulfonyl fluoride (PMSF), 1 mM sodium orthovanidate, 1 μM okadaic acid). Total protein concentrations were measured using the DC protein assay kit (Bio-Rad Laboratories, Hercules, Calif.). Equal amounts of protein (40 μg) were subjected to 10% SDS-PAGE followed by transfer of proteins onto polyvinylidene difluoride (Millipore, Billerica, Mass.) using standard protocols. The following antibodies were purchased from commercial sources: phospho-Rb (Ser795), phospho-Rb (Ser807/811) (Cell Signaling Technology, Beverly, Mass.); phospho-Rb (Thr821) (Biosource, Camarillo, Calif.); Cdk4, cyclin D1, p15, p16, p18, p19 (Santa Cruz Biotechnology, Santa Cruz, Calif.); total Rb, p21, p27 (BD PharMingen, San Diego, Calif.); β-actin (Clone AC-15, Sigma). The following dilutions of primary antibodies were used to detect respective proteins. 1:200 phospho-Rb (Ser795), 1:200 phospho-Rb (Ser807/811); 1:200 phospho-Rb (Thr821); 1:200 Cdk4, 1:200 cyclin D1, 1:100 p16; 1:200 total Rb, 1:200 p21, 1:100 p27. […]\nTo determine equal loading of total protein samples, blots were reprobed with monoclonal antibody against β-actin at a dilution of 1:2000. […] Means and SE were determined from 3 or more independent experiments.\nTo quantify expression levels or kinase activity, the optical density of each band was determined by densitometry and analyzed by QuickOne (Bio-Rad Laboratories). […] To report the changes due to OGF treatment, the fold increase was calculated by dividing the normalized value from the OGF treated samples by the normalized value of control samples at each time point; thus, increases due to OGF have values greater than one, and decreases due to OGF have values less than one."}, "[3]": {"system": "BxPC-3 cells", "assay": "Growth of BxPC-3 cells transfected with p21 siRNA or negative control siRNA", "type": "cell-based, human", "conditions": "for reduction in growth: negative control siRNA-transfected BxPC-3 cells", "procedure": "The p21-targeted siRNAs were obtained from Santa Cruz Biotechnology, and negative control siRNAs were purchased from Ambion (Ambion, Inc., Austin, Tex.). For transfection, 2×10^5 cells per well were seeded in 6-well plates containing 1 ml of media without antibiotics. For each well, 1 μl of siRNA stock (20 μM) was mixed with 175 μl of serum-free media. Two μl of Oligofectamine reagent (Invitrogen, Carlsbad, Calif.) was added to prewashed cells in each well, making the final concentration for siRNA approximately 20 nM. Cells were incubated for 4 hours at 37° C. prior to the addition of OGF. Eighteen hours later, 1 ml fresh complete media with or without OGF was added to the cultures; media and OGF were replaced daily. At the indicated time points, cells were collected for growth curves or Western blotting."}, "[4]": {"system": "SCC-1 cells", "assay": "siRNA knockdown of OGFr, growth of SCC-1 cells", "type": "cell-based, human", "conditions": "10^-6 M; for depression of growth: 96 h", "procedure": "siRNA knockdown of OGFr. […] For transfection, 5×10^4 cells per well were seeded in 6-well plates containing 1 ml of serum-containing media without antibiotics. In each well, 20 nM OGFr-siRNA or control siRNA solutions in serum-free media were added. Cells were incubated for 4 h at 37° C. prior to the addition of OGF. Cultures were incubated an additional 20 h, and then 1 ml fresh complete media either lacking or containing OGF was added. […] Two independent experiments were conducted. The control siRNAs were purchased from Ambion."}, "[5]": {"system": "Rabbit Tenon's Fibroblast cells (RTCFs)", "assay": "Cell counts of Rabbit Tenon's Fibroblast cells", "type": "cell-based", "conditions": "72 hours", "procedure": "OGF in dosages ranging from 10−4 to 10^−7 M were added to 24-well cultures for 72 hours; sterile water served as control. Drug or vehicle, and media were changed daily. Cell counts of Rabbit Tenon's Fibroblast cells (RTCFs) treated with OGF (10^−7 to 10^−5 M) were 28%, 33%, and 37% smaller than controls (p<0.001)."}},
  "data": [
    {"substance": "[Met^5]-enkephalin [OGF]", "values": [
      {"measurement": "Cell number compared to controls", "setting": "[1]; 72 h", "value": 87.5, "unit": "%"},
      {"measurement": "Cell number compared to controls", "setting": "[1]; 96 h", "value": 59.0, "unit": "%"},
      {"measurement": "mean doubling time", "setting": "[1]; linear regression of growth data", "value": "approximately 41.3 h"},
      {"measurement": "phospho-Rb (pT821) levels", "setting": "[2]; OGF treatment, Western blot", "value": "did not alter"},
      {"measurement": "Expression of total Rb protein", "setting": "[2]; after 14 h of OGF treatment", "value": "not decreased"},
      {"measurement": "Total levels of p105 and p107", "setting": "[2]; after exposure to OGF", "value": "no changes"},
      {"measurement": "effect on cell growth of cells transfected with p21 siRNA", "setting": "[3]; BxPC-3 cells, 10^-6 M OGF", "value": "no effect"},
      {"measurement": "Cell numbers vs transfected cells receiving sterile water", "setting": "[3]; BxPC-3 cultures transfected with negative control siRNA, 10^-6 M OGF (FIG. 8)", "value": "significantly reduced"},
      {"measurement": "reduction in growth", "setting": "[3]; 10^-6 M OGF, 48 hours", "value": 17.8, "unit": "%"},
      {"measurement": "reduction in growth", "setting": "[3]; 10^-6 M OGF, 72 hours", "value": 28.6, "unit": "%"},
      {"measurement": "reduction in growth", "setting": "[3]; 10^-6 M OGF, 96 hours", "value": 35.8, "unit": "%"},
      {"measurement": "reduction in growth", "setting": "[3]; 10^-6 M OGF, 120 hours", "value": 33.0, "unit": "%"},
      {"measurement": "effect on growth of OGFr-siRNA cultures", "setting": "[4]; SCC-1 cells subjected to OGFr-siRNA", "value": "no further effects"},
      {"measurement": "depression of growth", "setting": "[4]; control siRNA-treated SCC-1 cells", "value": 46, "unit": "%"},
      {"measurement": "depression of growth", "setting": "[4]; wt SCC-1 cells", "value": 29, "unit": "%"},
      {"measurement": "decrease in cell proliferation compared to RTCFs treated with 10^-6 M OGF", "setting": "[5]; 10^-4 M OGF", "value": 22, "unit": "%"},
      {"measurement": "decrease in cell proliferation compared to RTCFs treated with 10^-7 M OGF", "setting": "[5]; 10^-4 M OGF", "value": 26, "unit": "%"},
      {"measurement": "decrease in proliferation compared to controls", "setting": "[5]; 10^-4 M OGF", "value": 47, "unit": "%"},
      {"measurement": "Cell counts smaller than controls", "setting": "[5]; 10^-5 M OGF", "value": 37, "unit": "%"},
      {"measurement": "Cell counts smaller than controls", "setting": "[5]; 10^-6 M OGF", "value": 33, "unit": "%"},
      {"measurement": "Cell counts smaller than controls", "setting": "[5]; 10^-7 M OGF", "value": 28, "unit": "%"}
    ]}
  ]
}
